From PMC9481151, “Discovery of new symmetrical and asymmetrical nitrile-containing 1,4-dihydropyridine derivatives as dual kinases and P-glycoprotein inhibitors: synthesis, in vitro assays, and in silico studies” (Journal of Enzyme Inhibition and Medicinal Chemistry, 2022)

Experiments:
[1] = test system: RXF 393; test: NCI single dose (10 µM) SRB screen; type: cell-based, human; conditions: renal cancer, 48 h
[2] = test system: Escherichia coli; test: Agar well diffusion method; conditions: relative to ciprofloxacin
[3] = test system: SW-620; test: NCI single dose (10 µM) SRB screen; type: cell-based, human; conditions: colon cancer, 48 h
[4] = test system: MDA-MB-231; test: NCI single dose (10 µM) SRB screen; type: cell-based, human; conditions: breast cancer, 48 h
[5] = test system: SF-295; test: NCI single dose (10 µM) SRB screen; type: cell-based, human; conditions: CNS cancer, 48 h
[6] = test system: UACC-62; test: NCI single dose (10 µM) SRB screen; type: cell-based, human; conditions: melanoma, 48 h
[7] = test system: K-562; test: NCI single dose (10 µM) SRB screen; type: cell-based, human; conditions: leukaemia, 48 h
[8] = test system: Candida albicans; test: Agar well diffusion method; conditions: relative to clotrimazole
[9] = test system: MALME-3M; test: NCI single dose (10 µM) SRB screen; type: cell-based, human; conditions: melanoma, 48 h
[10] = test system: M14; test: NCI single dose (10 µM) SRB screen; type: cell-based, human; conditions: melanoma, 48 h
[11] = test system: CCRF-CEM; test: NCI single dose (10 µM) SRB screen; type: cell-based, human; conditions: leukaemia, 48 h
[12] = test system: A549/ATCC; test: NCI single dose (10 µM) SRB screen; type: cell-based, human; conditions: non-small cell lung cancer, 48 h
[13] = test system: NCI-H460; test: NCI single dose (10 µM) SRB screen; type: cell-based, human; conditions: non-small cell lung cancer, 48 h
[14] = test system: HT29; test: NCI single dose (10 µM) SRB screen; type: cell-based, human; conditions: colon cancer, 48 h
[15] = test system: HOP-92; test: NCI single dose (10 µM) SRB screen; type: cell-based, human; conditions: non-small cell lung cancer, 48 h
[16] = test system: DU-145; test: NCI single dose (10 µM) SRB screen; type: cell-based, human; conditions: prostate cancer, 48 h
[17] = test system: NCI 60 cancer cell lines; test: NCI single dose (10 µM) SRB screen, mean over panel; type: cell-based, human; conditions: mean over 60 cell lines, 48 h
[18] = test system: HS578T; test: NCI single dose (10 µM) SRB screen; type: cell-based, human; conditions: breast cancer, 48 h
[19] = test system: HOP-62; test: NCI single dose (10 µM) SRB screen; type: cell-based, human; conditions: non-small cell lung cancer, 48 h
[20] = test system: Aspergillus flavus; test: Agar well diffusion method; conditions: relative to clotrimazole
[21] = test system: RPMI-8226; test: NCI single dose (10 µM) SRB screen; type: cell-based, human; conditions: leukaemia, 48 h
[22] = test system: SR; test: NCI single dose (10 µM) SRB screen; type: cell-based, human; conditions: leukaemia, 48 h
[23] = test system: CAKI-1; test: NCI single dose (10 µM) SRB screen; type: cell-based, human; conditions: renal cancer, 48 h
[24] = test system: MCF7; test: NCI single dose (10 µM) SRB screen; type: cell-based, human; conditions: breast cancer, 48 h
[25] = test system: KM12; test: NCI single dose (10 µM) SRB screen; type: cell-based, human; conditions: colon cancer, 48 h
[26] = test system: MOLT-4; test: NCI single dose (10 µM) SRB screen; type: cell-based, human; conditions: leukaemia, 48 h
[27] = test system: 786-0; test: NCI single dose (10 µM) SRB screen; type: cell-based, human; conditions: renal cancer, 48 h
[28] = test system: NCI-H522; test: NCI single dose (10 µM) SRB screen; type: cell-based, human; conditions: non-small cell lung cancer, 48 h
[29] = test system: OVCAR-5; test: NCI single dose (10 µM) SRB screen; type: cell-based, human; conditions: ovarian cancer, 48 h
[30] = test system: NCI-H23; test: NCI single dose (10 µM) SRB screen; type: cell-based, human; conditions: non-small cell lung cancer, 48 h
[31] = test system: Bacillus subtilis; test: Agar well diffusion method; conditions: relative to ciprofloxacin
[32] = test system: TK-10; test: NCI single dose (10 µM) SRB screen; type: cell-based, human; conditions: renal cancer, 48 h
[33] = test system: SK-MEL-5; test: NCI single dose (10 µM) SRB screen; type: cell-based, human; conditions: melanoma, 48 h
[34] = test system: Pseudomonas aeruginosa; test: Agar well diffusion method; conditions: relative to ciprofloxacin
[35] = test system: OVCAR-3; test: NCI single dose (10 µM) SRB screen; type: cell-based, human; conditions: ovarian cancer, 48 h
[36] = test system: SK-MEL-28; test: NCI single dose (10 µM) SRB screen; type: cell-based, human; conditions: melanoma, 48 h
[37] = test system: NCI-H322M; test: NCI single dose (10 µM) SRB screen; type: cell-based; conditions: non-small cell lung cancer, 48 h
[38] = test system: T-47D; test: NCI single dose (10 µM) SRB screen; type: cell-based, human; conditions: breast cancer, 48 h
[39] = test system: A498; test: NCI single dose (10 µM) SRB screen; type: cell-based, human; conditions: renal cancer, 48 h
[40] = test system: UO-31; test: NCI single dose (10 µM) SRB screen; type: cell-based, human; conditions: renal cancer, 48 h
[41] = test system: EKVX; test: NCI single dose (10 µM) SRB screen; type: cell-based, human; conditions: non-small cell lung cancer, 48 h
[42] = test system: IGROV1; test: NCI single dose (10 µM) SRB screen; type: cell-based, human; conditions: ovarian cancer, 48 h
[43] = test system: BT-549; test: NCI single dose (10 µM) SRB screen; type: cell-based, human; conditions: breast cancer, 48 h
[44] = test system: HCT-15; test: NCI single dose (10 µM) SRB screen; type: cell-based, human; conditions: colon cancer, 48 h
[45] = test system: SK-OV-3; test: NCI single dose (10 µM) SRB screen; type: cell-based, human; conditions: ovarian cancer, 48 h
[46] = test system: LOX IMVI; test: NCI single dose (10 µM) SRB screen; type: cell-based, human; conditions: melanoma, 48 h
[47] = test system: COLO 205; test: NCI single dose (10 µM) SRB screen; type: cell-based, human; conditions: colon cancer, 48 h
[48] = test system: OVCAR-8; test: NCI single dose (10 µM) SRB screen; type: cell-based, human; conditions: ovarian cancer, 48 h
[49] = test system: Staphylococcus aureus; test: Agar well diffusion method; conditions: relative to ciprofloxacin
[50] = test system: U251; test: NCI single dose (10 µM) SRB screen; type: cell-based, human; conditions: CNS cancer, 48 h
[51] = test system: ACHN; test: NCI single dose (10 µM) SRB screen; type: cell-based, human; conditions: renal cancer, 48 h
[52] = test system: HCC-2998; test: NCI single dose (10 µM) SRB screen; type: cell-based, human; conditions: colon cancer, 48 h
[53] = test system: SK-MEL-2; test: NCI single dose (10 µM) SRB screen; type: cell-based, human; conditions: melanoma, 48 h
[54] = test system: MDA-MB-435; test: NCI single dose (10 µM) SRB screen; type: cell-based, human; conditions: melanoma, 48 h
[55] = test system: HCT-116; test: NCI single dose (10 µM) SRB screen; type: cell-based, human; conditions: colon cancer, 48 h
[56] = test system: SNB-19; test: NCI single dose (10 µM) SRB screen; type: cell-based, human; conditions: CNS cancer, 48 h
[57] = test system: SNB-75; test: NCI single dose (10 µM) SRB screen; type: cell-based, human; conditions: CNS cancer, 48 h
[58] = test system: NCI/ADR-RES; test: NCI single dose (10 µM) SRB screen; type: cell-based, human; conditions: ovarian cancer, 48 h
[59] = test system: HL-60(TB); test: NCI single dose (10 µM) SRB screen; type: cell-based, human; conditions: leukaemia, 48 h
[60] = test system: NCI-H226; test: NCI single dose (10 µM) SRB screen; type: cell-based, human; conditions: non-small cell lung cancer, 48 h
[61] = test system: SF-268; test: NCI single dose (10 µM) SRB screen; type: cell-based, human; conditions: CNS cancer, 48 h
[62] = test system: MDA-MB-468; test: NCI single dose (10 µM) SRB screen; type: cell-based, human; conditions: breast cancer, 48 h
[63] = test system: SF-539; test: NCI single dose (10 µM) SRB screen; type: cell-based, human; conditions: CNS cancer, 48 h
[64] = test system: OVCAR-4; test: NCI single dose (10 µM) SRB screen; type: cell-based, human; conditions: ovarian cancer, 48 h
[65] = test system: UACC-257; test: NCI single dose (10 µM) SRB screen; type: cell-based, human; conditions: melanoma, 48 h
[66] = test system: SN12C; test: NCI single dose (10 µM) SRB screen; type: cell-based, human; conditions: renal cancer, 48 h
[67] = test system: PC-3; test: NCI single dose (10 µM) SRB screen; type: cell-based, human; conditions: prostate cancer, 48 h

CC1=C(C(=O)OCC(C)C)C(c2cccc(C#N)c2)C(C(=O)OCC(C)C)=C(C)N1 [Compound 1d, Diisobutyl 4-(3-cyanophenyl)-2,6-dimethyl-1,4-dihydropyridine-3,5-dicarboxylate]
GI% RXF 393 [1]: 42%
% activity index, E. coli [2]: – (Values below 25 are of limited value and not shown as they refer either to inactive or non-diffusing compounds)
GI% SW-620 [3]: – (Only GI% ≥ 10 are shown)
GI% MDA-MB-231 [4]: 17%
GI% SF-295 [5]: 32%
GI% UACC-62 [6]: 23%
GI% K-562 [7]: 44%
% activity index, C. albicans [8]: – (Values below 25 are of limited value and not shown as they refer either to inactive or non-diffusing compounds)
GI% MALME-3M [9]: – (Only GI% ≥ 10 are shown)
GI% M14 [10]: – (Only GI% ≥ 10 are shown)
GI% CCRF-CEM [11]: 32%
GI% A549/ATCC [12]: 25%
GI% NCI-H460 [13]: 13%
GI% HT29 [14]: 12%
GI% HOP-92 [15]: 37%
GI% DU-145 [16]: – (Only GI% ≥ 10 are shown)
Mean GI% [17]: 19%
GI% HS578T [18]: 25%
GI% HOP-62 [19]: 12%
% activity index, A. flavus [20]: – (Values below 25 are of limited value and not shown as they refer either to inactive or non-diffusing compounds)
GI% RPMI-8226 [21]: 35%
GI% SR [22]: 52%
GI% CAKI-1 [23]: 38%
GI% MCF7 [24]: 39%
GI% KM12 [25]: 24%
GI% MOLT-4 [26]: 57%
GI% 786-0 [27]: 18%
GI% NCI-H522 [28]: 21%
GI% OVCAR-5 [29]: – (Only GI% ≥ 10 are shown)
GI% NCI-H23 [30]: 14%
% activity index, B. subtilis [31]: – (Values below 25 are of limited value and not shown as they refer either to inactive or non-diffusing compounds)
GI% TK-10 [32]: – (Only GI% ≥ 10 are shown)
GI% SK-MEL-5 [33]: 17%
% activity index, P. aeruginosa [34]: – (Values below 25 are of limited value and not shown as they refer either to inactive or non-diffusing compounds)
GI% OVCAR-3 [35]: 10%
GI% SK-MEL-28 [36]: – (Only GI% ≥ 10 are shown)
GI% NCI-H322M [37]: – (Only GI% ≥ 10 are shown)
GI% T-47D [38]: 54%
GI% A498 [39]: 17%
melting point: 146 to 148 °C
GI% UO-31 [40]: 20%
GI% EKVX [41]: 27%
GI% IGROV1 [42]: – (Only GI% ≥ 10 are shown)
GI% BT-549 [43]: – (Only GI% ≥ 10 are shown)
GI% HCT-15 [44]: 31%
GI% SK-OV-3 [45]: – (Only GI% ≥ 10 are shown)
GI% LOX IMVI [46]: 10%
GI% COLO 205 [47]: – (Only GI% ≥ 10 are shown)
GI% OVCAR-8 [48]: 11%
% activity index, S. aureus [49]: – (Values below 25 are of limited value and not shown as they refer either to inactive or non-diffusing compounds)
GI% U251 [50]: 21%
GI% ACHN [51]: 16%
GI% HCC-2998 [52]: – (Only GI% ≥ 10 are shown)
GI% SK-MEL-2 [53]: 14%
GI% MDA-MB-435 [54]: – (Only GI% ≥ 10 are shown)
GI% HCT-116 [55]: 32%
GI% SNB-19 [56]: – (Only GI% ≥ 10 are shown)
GI% SNB-75 [57]: 32%
GI% NCI/ADR-RES [58]: 20%
GI% HL-60(TB) [59]: 30%
GI% NCI-H226 [60]: 25%
GI% SF-268 [61]: 25%
GI% MDA-MB-468 [62]: 30%
GI% SF-539 [63]: 12%
GI% OVCAR-4 [64]: 16%
GI% UACC-257 [65]: 17%
GI% SN12C [66]: 10%
GI% PC-3 [67]: 57%
